Test results published in patent US20070128217A1 (priority 2003, published 2007).

Key:
[1] = system: recombinant human anti-SARS-CoV antibody 03-018; type: binding; design: Binding of antibody 03-018 to linear peptides of the N protein of SARS-CoV Urbani / Binding of antibody 03-018 to looped/cyclic peptides of the N protein of SARS-CoV Urbani: unit not given here
[2] = system: control sera (pooled serum of ten healthy LUMC hospital workers; commercial negative donor pooled serum from the Dutch bloodbank); type: binding, human; design: Binding of Control serum LUMC to linear peptides / Binding of Control serum Blood-bank to linear peptides / Binding of Control serum LUMC to looped peptides / Binding of Control Serum Blood-Bank to Looped peptides / Binding of Control serum LUMC to linear peptides of the protein M of SARS-CoV Urbani / Binding of Control serum Blood-bank to linear peptides of the protein M of SARS-CoV Urbani / Binding of Control serum LUMC to looped peptides of the protein M of SARS-CoV Urbani / Binding of Control Serum Blood-Bank to Looped peptides of the protein M of SARS-CoV Urbani: unit not given here
[3] = system: antibodies in sera from SARS patients (sera 1a, 1b, 2, 6, 37, 62, London, SARS-yellow, SARS-green); type: binding, human; design: Binding of serum 6 to linear peptides of protein X1 of SARS-CoV Urbani / Binding of serum 37 to linear peptides of protein X1 of SARS-CoV Urbani / Binding of serum 6 to looped/cyclic peptide (PEPSCAN-ELISA) / Binding of serum 37 to looped/cyclic peptide (PEPSCAN-ELISA) / Binding of serum 37 to looped/cyclic peptides of protein X1 of SARS-CoV Urbani / Binding of serum 6 to linear peptides of protein X2 / Binding of serum 37 to linear peptides of protein X2 / Binding of serum 37 to looped/cyclic peptides of protein X2 of SARS-CoV Urbani / Binding of serum 6 to linear peptides of protein M of SARS-CoV Urbani / Binding of serum 37 to linear peptides of protein M of SARS-CoV Urbani / Binding of serum 6 to looped/cyclic peptides of protein M of SARS-CoV Urbani / Binding of serum 37 to looped/cyclic peptides of protein M of SARS-CoV Urbani / Binding of serum 6 to linear peptides of protein X3 of SARS-CoV Urbani / Binding of serum 37 to linear peptides of protein X3 of SARS-CoV Urbani / Binding of serum 37 to looped/cyclic peptides of protein X3 of SARS-CoV Urbani / Binding of serum 6 to linear peptides of protein X4 of SARS-CoV Urbani / Binding of serum 37 to linear peptides of protein X4 of SARS-CoV Urbani / Binding of serum 37 to looped/cyclic peptides of protein X4 of SARS-CoV Urbani / Binding of serum 6 to linear peptides of protein X5 of SARS-CoV Urbani / Binding of serum 37 to linear peptides of protein X5 of SARS-CoV Urbani / Binding of serum 37 to looped/cyclic peptides of protein X5 of SARS-CoV Urbani / Binding of serum 6 to linear peptides of protein N of SARS-CoV Urbani / Binding of serum 37 to linear peptides of protein N of SARS-CoV Urbani / Binding of serum 6 to linear peptide (PEPSCAN-ELISA) / Binding of serum 1a to looped/cyclic peptides of protein N of SARS-CoV Urbani / Binding of serum 1b to looped/cyclic peptides of protein N of SARS-CoV Urbani / Binding of serum 2 to looped/cyclic peptides of protein N of SARS-CoV Urbani / Binding of serum 6 to looped/cyclic peptides of protein N of SARS-CoV Urbani / Binding of serum 37 to looped/cyclic peptides of protein N of SARS-CoV Urbani / Binding of serum 62 to looped/cyclic peptides of protein N of SARS-CoV Urbani / Binding of serum London to looped/cyclic peptides of protein N of SARS-CoV Urbani / Binding of serum SARS-green to looped/cyclic peptides of protein N of SARS-CoV Urbani: unit not given here
[4] = system: rabbit serum obtained by immunizing a rabbit with the SARS-CoV strain Frankfurt 1; type: binding; design: Binding of a rabbit serum to linear peptides / Binding of a rabbit serum to looped peptides / Rabbit serum linear peptides / Rabbit serum looped peptides / Binding of a rabbit serum to linear peptides of protein N of SARS-CoV Urbani (Rabbit serum linear peptides) / Binding of a rabbit serum to looped/cyclic peptides of protein N of SARS-CoV Urbani (Rabbit serum looped peptides): unit not given here

## LGTGPEASLPYGANK
[1]
  Binding of antibody 03-018 to linear peptides of the N protein of SARS-CoV Urbani: 0.1
  Binding of antibody 03-018 to looped/cyclic peptides of the N protein of SARS-CoV Urbani: 0.2
[2]
  Binding of Control Serum Blood-Bank to Looped peptides: 0.5
  Binding of Control serum Blood-bank to linear peptides: 0.9
  Binding of Control serum LUMC to linear peptides: 0.9
  Binding of Control serum LUMC to looped peptides: 0.6
[3]
  Binding of serum 1a to linear peptides of protein N of SARS-CoV Urbani: 0.3
  Binding of serum 1a to looped/cyclic peptides of protein N of SARS-CoV Urbani: 0.3
  Binding of serum 1b to linear peptides of protein N of SARS-CoV Urbani: 0.1
  Binding of serum 1b to looped/cyclic peptides of protein N of SARS-CoV Urbani: 0.2
  Binding of serum 2 to linear peptides of protein N of SARS-CoV Urbani: 0.3
  Binding of serum 2 to looped/cyclic peptides of protein N of SARS-CoV Urbani: 0.5
  Binding of serum 6 to linear peptides of protein N of SARS-CoV Urbani: 0.2
  Binding of serum 6 to looped/cyclic peptides of protein N of SARS-CoV Urbani: 0.2
  Binding of serum 37 to linear peptides of protein N of SARS-CoV Urbani: 0.7
  Binding of serum 37 to looped/cyclic peptides of protein N of SARS-CoV Urbani: 0.5
  Binding of serum 62 to linear peptides of protein N of SARS-CoV Urbani: 0.7
  Binding of serum 62 to looped/cyclic peptides of protein N of SARS-CoV Urbani: 0.4
  Binding of serum London to linear peptides of protein N of SARS-CoV Urbani: 0.5
  Binding of serum London to looped/cyclic peptides of protein N of SARS-CoV Urbani: 0.4
  Binding of serum SARS-green to linear peptides of protein N of SARS-CoV Urbani: 0.5
  Binding of serum SARS-green to looped/cyclic peptides of protein N of SARS-CoV Urbani: 0.4
  Binding of serum SARS-yellow to linear peptides of protein N of SARS-CoV Urbani: 0.7
  Binding of serum SARS-yellow to looped/cyclic peptides of protein N of SARS-CoV Urbani: 0.5
[4]
  Binding of a rabbit serum to linear peptides of protein N of SARS-CoV Urbani (Rabbit serum linear peptides): 0.2
  Binding of a rabbit serum to looped/cyclic peptides of protein N of SARS-CoV Urbani (Rabbit serum looped peptides): 0.4

## LLLLDRLNQLESKVS
[1]
  Binding of antibody 03-018 to linear peptides of the N protein of SARS-CoV Urbani: 0.2
  Binding of antibody 03-018 to looped/cyclic peptides of the N protein of SARS-CoV Urbani: 0.2
[2]
  Binding of Control Serum Blood-Bank to Looped peptides: 0.4
  Binding of Control serum Blood-bank to linear peptides: 0.7
  Binding of Control serum LUMC to linear peptides: 0.6
  Binding of Control serum LUMC to looped peptides: 0.4
[3]
  Binding of serum 1a to linear peptide (PEPSCAN-ELISA): 0.2
  Binding of serum 1a to looped/cyclic peptides of protein N of SARS-CoV Urbani: 0.2
  Binding of serum 1b to linear peptide (PEPSCAN-ELISA): 0.1
  Binding of serum 1b to looped/cyclic peptides of protein N of SARS-CoV Urbani: 0.1
  Binding of serum 2 to linear peptide (PEPSCAN-ELISA): 0.2
  Binding of serum 2 to looped/cyclic peptides of protein N of SARS-CoV Urbani: 0.2
  Binding of serum 6 to linear peptide (PEPSCAN-ELISA): 0.1
  Binding of serum 6 to looped/cyclic peptides of protein N of SARS-CoV Urbani: 0.1
  Binding of serum 37 to linear peptide (PEPSCAN-ELISA): 0.7
  Binding of serum 37 to looped/cyclic peptides of protein N of SARS-CoV Urbani: 0.4
  Binding of serum 62 to linear peptide (PEPSCAN-ELISA): 0.4
  Binding of serum 62 to looped/cyclic peptides of protein N of SARS-CoV Urbani: 0.2
  Binding of serum London to linear peptide (PEPSCAN-ELISA): 0.7
  Binding of serum London to looped/cyclic peptides of protein N of SARS-CoV Urbani: 0.3
  Binding of serum SARS-green to linear peptide (PEPSCAN-ELISA): 0.4
  Binding of serum SARS-green to looped/cyclic peptides of protein N of SARS-CoV Urbani: 0.2
  Binding of serum SARS-yellow to linear peptide (PEPSCAN-ELISA): 0.4
  Binding of serum SARS-yellow to looped/cyclic peptides of protein N of SARS-CoV Urbani: 0.0
[4]
  Binding of a rabbit serum to linear peptides of protein N of SARS-CoV Urbani (Rabbit serum linear peptides): 0.1
  Binding of a rabbit serum to looped/cyclic peptides of protein N of SARS-CoV Urbani (Rabbit serum looped peptides): 0.0

## LLNKHIDAYKTFPPT
[1]
  Binding of antibody 03-018 to linear peptides of the N protein of SARS-CoV Urbani: 0.1
  Binding of antibody 03-018 to looped/cyclic peptides of the N protein of SARS-CoV Urbani: 0.2
[2]
  Control Serum Blood-Bank Looped peptides: 0.5
  Control serum Blood-bank linear peptides: 0.6
  Control serum LUMC linear peptides: 0.7
  Control serum LUMC looped peptides: 0.5
[3]
  Binding of serum 1a to linear peptides of protein N of SARS-CoV Urbani: 0.2
  Binding of serum 1a to looped/cyclic peptides of protein N of SARS-CoV Urbani: 0.3
  Binding of serum 1b to linear peptides of protein N of SARS-CoV Urbani: 0.1
  Binding of serum 1b to looped/cyclic peptides of protein N of SARS-CoV Urbani: 0.1
  Binding of serum 2 to linear peptides of protein N of SARS-CoV Urbani: 0.2
  Binding of serum 2 to looped/cyclic peptides of protein N of SARS-CoV Urbani: 0.3
  Binding of serum 6 to linear peptides of protein N of SARS-CoV Urbani: 0.2
  Binding of serum 6 to looped/cyclic peptides of protein N of SARS-CoV Urbani: 0.2
  Binding of serum 37 to linear peptides of protein N of SARS-CoV Urbani: 0.7
  Binding of serum 37 to looped/cyclic peptides of protein N of SARS-CoV Urbani: 0.4
  Binding of serum 62 to linear peptides of protein N of SARS-CoV Urbani: 0.6
  Binding of serum 62 to looped/cyclic peptides of protein N of SARS-CoV Urbani: 0.3
  Binding of serum London to linear peptides of protein N of SARS-CoV Urbani: 0.5
  Binding of serum London to looped/cyclic peptides of protein N of SARS-CoV Urbani: 0.3
  Binding of serum SARS-green to linear peptides of protein N of SARS-CoV Urbani: 0.5
  Binding of serum SARS-green to looped/cyclic peptides of protein N of SARS-CoV Urbani: 0.3
  Binding of serum SARS-yellow to linear peptides of protein N of SARS-CoV Urbani: 0.6
  Binding of serum SARS-yellow to looped/cyclic peptides of protein N of SARS-CoV Urbani: 0.4
[4]
  Binding of a rabbit serum to linear peptides of protein N of SARS-CoV Urbani (Rabbit serum linear peptides): 0.2
  Binding of a rabbit serum to looped/cyclic peptides of protein N of SARS-CoV Urbani (Rabbit serum looped peptides): 0.4

## LPQRQKKQPTVTLLP
[1]
  Binding of antibody 03-018 to linear peptides of the N protein of SARS-CoV Urbani: 0.1
  Binding of antibody 03-018 to looped/cyclic peptides of the N protein of SARS-CoV Urbani: 0.3
[2]
  Control Serum Blood-Bank Looped peptides: 0.8
  Control serum Blood-bank linear peptides: 0.8
  Control serum LUMC linear peptides: 0.7
  Control serum LUMC looped peptides: 0.7
[3]
  Binding of serum 1a to linear peptides of protein N of SARS-CoV Urbani: 0.2
  Binding of serum 1b to linear peptides of protein N of SARS-CoV Urbani: 0.2
  Binding of serum 2 to linear peptides of protein N of SARS-CoV Urbani: 0.3
  Binding of serum 6 to linear peptides of protein N of SARS-CoV Urbani: 0.1
  Binding of serum 37 to linear peptides of protein N of SARS-CoV Urbani: 0.7
  Binding of serum 62 to linear peptides of protein N of SARS-CoV Urbani: 0.7
  Binding of serum London to linear peptides of protein N of SARS-CoV Urbani: 0.5
  Binding of serum SARS-green to linear peptides of protein N of SARS-CoV Urbani: 0.4
  Binding of serum SARS-yellow to linear peptides of protein N of SARS-CoV Urbani: 0.7
  Recognition of the peptide by sera of SARS-CoV infected individuals, and form (linear, looped/cyclic) in which it is recognized: recognized in looped/cyclic form
[4]
  Binding of a rabbit serum to linear peptides of protein N of SARS-CoV Urbani (Rabbit serum linear peptides): 0.2
  Binding of a rabbit serum to looped/cyclic peptides of protein N of SARS-CoV Urbani (Rabbit serum looped peptides): 0.7
